Values joined by “and” are separate entries in the source; they are usually repeats but may differ in a detail not shown here. Identical values can stand only once.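 All cell lines were grown in 96-well plates and treated with compound for 48 hours. The concentration for 50% growth inhibition is given as GI50.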 Active and inactive are the calls of the source. Cut-off read from the data, not from the text of the source: active = GI50 up to about 1.1 µM and inactive = higher.
How the values were obtained:
Assay in all cases: DTP human tumour cell line panel, 48 h
NCI-H23 = tested on: NCI-H23
CCRF-CEM = tested on: CCRF-CEM
IGROV-1 = tested on: IGROV-1
MCF7 = tested on: MCF7
HOP-62 = tested on: HOP-62
SR = tested on: SR
MDA-N = tested on: MDA-N
OVCAR-4 = tested on: OVCAR-4
MDA-MB-435 = tested on: MDA-MB-435
CAKI-1 = tested on: CAKI-1
LOX IMVI = tested on: LOX IMVI
SF-268 = tested on: SF-268
NCI-H226 = tested on: NCI-H226
NCI-H460 = tested on: NCI-H460
786-0 = tested on: 786-0
ACHN = tested on: ACHN
Hs-578T = tested on: Hs-578T
HCT-116 = tested on: HCT-116
K562 = tested on: K562
OVCAR-3 = tested on: OVCAR-3
MDA-MB-231 = tested on: MDA-MB-231
Malme-3M = tested on: Malme-3M
T47D = tested on: T47D
COLO 205 = tested on: COLO 205
RXF 393 = tested on: RXF 393
NCI/ADR-RES = tested on: NCI/ADR-RES
U-251 = tested on: U-251
SK-MEL-28 = tested on: SK-MEL-28
SN12C = tested on: SN12C
OVCAR-8 = tested on: OVCAR-8
NCI-H522 = tested on: NCI-H522
HCT-15 = tested on: HCT-15
SF-295 = tested on: SF-295
RPMI-8226 = tested on: RPMI-8226
SW-620 = tested on: SW-620
HCC 2998 = tested on: HCC 2998
HT-29 = tested on: HT-29
A498 = tested on: A498
PC-3 = tested on: PC-3
HL-60 = tested on: HL-60
KM12 = tested on: KM12
SK-MEL-2 = tested on: SK-MEL-2
A549 = tested on: A549
DU-145 = tested on: DU-145
UO-31 = tested on: UO-31
M14 = tested on: M14
UACC-62 = tested on: UACC-62
SK-OV-3 = tested on: SK-OV-3
SNB-75 = tested on: SNB-75
TK-10 = tested on: TK-10
OVCAR-5 = tested on: OVCAR-5
UACC-257 = tested on: UACC-257
SF-539 = tested on: SF-539
EKVX = tested on: EKVX
MOLT-4 = tested on: MOLT-4
SNB-19 = tested on: SNB-19
SK-MEL-5 = tested on: SK-MEL-5
HOP-92 = tested on: HOP-92

With COc1ccc(COC(=O)NCC(=O)NC(C)C(=O)NC(Cc2ccccc2)C(=O)OCc2ccccc2)cc1 (stereo not drawn) the GI50 (NCI-H23) was 37.9 µM (inactive), the GI50 (CCRF-CEM) was 21.5 µM (inactive) and 13.6 µM (inactive) and the GI50 (IGROV-1) was 45.2 µM (inactive) and 29.8 µM (inactive). For the same compound, the GI50 (MCF7) was 17 µM (inactive), the GI50 (HOP-62) was 24.7 µM (inactive) and 22.3 µM (inactive) and the GI50 (SR) was 28.3 µM (inactive) and 25 µM (inactive). For the same compound, the GI50 (MDA-N) was 25.9 µM (inactive) and 27.4 µM (inactive), the GI50 (OVCAR-4) was 34 µM (inactive) and 22.3 µM (inactive) and the GI50 (MDA-MB-435) was 27.6 µM (inactive) and 22.1 µM (inactive). The GI50 (CAKI-1) was 20 µM (inactive) and 21.1 µM (inactive), the GI50 (LOX IMVI) was 28.1 µM (inactive) and 19.4 µM (inactive) and the GI50 (SF-268) was 24.3 µM (inactive) and 35 µM (inactive). The GI50 (NCI-H226) was 27.3 µM (inactive) and 34.9 µM (inactive), the GI50 (NCI-H460) was 10.8 µM (inactive) and the GI50 (786-0) was 20 µM (inactive) and 29.2 µM (inactive). For the same compound, the GI50 (ACHN) was 21.3 µM (inactive) and 19.8 µM (inactive), the GI50 (Hs-578T) was 23.9 µM (inactive) and 25.5 µM (inactive) and the GI50 (HCT-116) was 33.5 µM (inactive) and 42.5 µM (inactive). For the same compound, the GI50 (K562) was 26.5 µM (inactive) and 38.7 µM (inactive), the GI50 (OVCAR-3) was 22.1 µM (inactive) and 24.4 µM (inactive) and the GI50 (MDA-MB-231) was 20 µM (inactive) and 25.6 µM (inactive). The GI50 (Malme-3M) was 19.2 µM (inactive) and 36.6 µM (inactive), the GI50 (T47D) was 19.8 µM (inactive) and 30.1 µM (inactive) and the GI50 (COLO 205) was 24.4 µM (inactive) and 24.2 µM (inactive). For the same compound, the GI50 (RXF 393) was 16.1 µM (inactive), the GI50 (NCI/ADR-RES) was > 100 µM (inactive) and 67.1 µM (inactive) and the GI50 (U-251) was 22.2 µM (inactive) and 21.9 µM (inactive). For the same compound, the GI50 (SK-MEL-28) was 18.9 µM (inactive) and 19.4 µM (inactive), the GI50 (SN12C) was 24.2 µM (inactive) and 31.5 µM (inactive) and the GI50 (OVCAR-8) was > 100 µM (inactive) and 74.5 µM (inactive). The GI50 (NCI-H522) was 12.2 µM (inactive) and 16.5 µM (inactive), the GI50 (HCT-15) was > 100 µM and 61.2 µM and the GI50 (SF-295) was 21.1 µM (inactive) and 22.3 µM (inactive). For the same compound, the GI50 (RPMI-8226) was 29.6 µM (inactive) and 26.7 µM (inactive), the GI50 (SW-620) was 33.3 µM (inactive) and 45.8 µM (inactive) and the GI50 (HCC 2998) was 20.9 µM (inactive) and 14.8 µM (inactive). The GI50 (HT-29) was 26.4 µM (inactive) and 18.4 µM (inactive) and the GI50 (A498) was 38.8 µM (inactive) and 22.5 µM (inactive).

NC(Cc1ccc(CP(=O)(O)O)cc1)C(=O)O (stereo not drawn) was tested, and the GI50 (NCI-H23) was > 100 µM (inactive), the GI50 (PC-3) was > 100 µM (inactive) and the GI50 (CCRF-CEM) was > 100 µM (inactive). For the same compound, the GI50 (HL-60) was > 100 µM (inactive), the GI50 (KM12) was > 100 µM (inactive) and the GI50 (IGROV-1) was > 100 µM (inactive). For the same compound, the GI50 (MCF7) was > 100 µM (inactive), the GI50 (SK-MEL-2) was > 100 µM (inactive) and the GI50 (SR) was > 100 µM (inactive). For the same compound, the GI50 (A549) was > 100 µM (inactive), the GI50 (DU-145) was > 100 µM (inactive) and the GI50 (MDA-N) was > 100 µM (inactive). The GI50 (UO-31) was > 100 µM (inactive), the GI50 (M14) was > 100 µM (inactive) and the GI50 (UACC-62) was > 100 µM (inactive). For the same compound, the GI50 (SK-OV-3) was > 100 µM (inactive), the GI50 (OVCAR-4) was > 100 µM (inactive) and the GI50 (MDA-MB-435) was > 100 µM (inactive). The GI50 (SNB-75) was > 100 µM (inactive), the GI50 (CAKI-1) was 11.5 µM (inactive) and the GI50 (LOX IMVI) was > 100 µM (inactive). The GI50 (SF-268) was > 100 µM (inactive), the GI50 (NCI-H460) was > 100 µM (inactive) and the GI50 (TK-10) was > 100 µM (inactive). The GI50 (ACHN) was > 100 µM (inactive), the GI50 (Hs-578T) was > 100 µM (inactive) and the GI50 (OVCAR-5) was > 100 µM (inactive). For the same compound, the GI50 (HCT-116) was > 100 µM (inactive), the GI50 (UACC-257) was > 100 µM (inactive) and the GI50 (K562) was > 100 µM (inactive). For the same compound, the GI50 (SF-539) was > 100 µM (inactive), the GI50 (OVCAR-3) was > 100 µM (inactive) and the GI50 (MDA-MB-231) was > 100 µM (inactive). For the same compound, the GI50 (T47D) was > 100 µM (inactive), the GI50 (COLO 205) was > 100 µM (inactive) and the GI50 (RXF 393) was > 100 µM (inactive). For the same compound, the GI50 (NCI/ADR-RES) was > 100 µM (inactive), the GI50 (U-251) was > 100 µM (inactive) and the GI50 (SK-MEL-28) was > 100 µM (inactive). For the same compound, the GI50 (EKVX) was > 100 µM (inactive), the GI50 (SN12C) was > 100 µM (inactive) and the GI50 (OVCAR-8) was > 100 µM (inactive). For the same compound, the GI50 (MOLT-4) was > 100 µM (inactive), the GI50 (NCI-H522) was > 100 µM (inactive) and the GI50 (HCT-15) was greater than 100 µM. The GI50 (SNB-19) was > 100 µM (inactive), the GI50 (SF-295) was > 100 µM (inactive) and the GI50 (RPMI-8226) was > 100 µM (inactive). For the same compound, the GI50 (SW-620) was > 100 µM (inactive), the GI50 (SK-MEL-5) was > 100 µM (inactive) and the GI50 (HCC 2998) was > 100 µM (inactive). For the same compound, the GI50 (HOP-92) was > 100 µM (inactive) and the GI50 (HT-29) was > 100 µM (inactive).

In the case of Cc1nc(=O)n2c(c1C(=O)Nc1ccc(Cl)cc1)NCC2, the GI50 (HOP-92) was 47.8 µM (inactive).

In the case of O=[N+]([O-])c1cccc(-c2nc(-c3ccccc3)c(-c3ccccc3)[nH]2)c1, the GI50 (NCI-H23) was > 100 µM (inactive), the GI50 (PC-3) was > 100 µM (inactive) and the GI50 (CCRF-CEM) was > 100 µM (inactive). The GI50 (HL-60) was > 100 µM (inactive), the GI50 (IGROV-1) was > 100 µM (inactive) and the GI50 (MCF7) was > 100 µM (inactive). The GI50 (SK-MEL-2) was > 100 µM (inactive), the GI50 (HOP-62) was > 100 µM (inactive) and the GI50 (SR) was > 100 µM (inactive). For the same compound, the GI50 (A549) was > 100 µM (inactive), the GI50 (DU-145) was > 100 µM (inactive) and the GI50 (MDA-N) was > 100 µM (inactive). The GI50 (UO-31) was > 100 µM (inactive), the GI50 (M14) was > 100 µM (inactive) and the GI50 (UACC-62) was > 100 µM (inactive). For the same compound, the GI50 (SK-OV-3) was > 100 µM (inactive), the GI50 (MDA-MB-435) was > 100 µM (inactive) and the GI50 (CAKI-1) was > 100 µM (inactive). The GI50 (LOX IMVI) was > 100 µM (inactive), the GI50 (SF-268) was > 100 µM (inactive) and the GI50 (NCI-H226) was > 100 µM (inactive). For the same compound, the GI50 (NCI-H460) was > 100 µM (inactive), the GI50 (TK-10) was > 100 µM (inactive) and the GI50 (786-0) was > 100 µM (inactive). The GI50 (Hs-578T) was > 100 µM (inactive), the GI50 (OVCAR-5) was > 100 µM (inactive) and the GI50 (HCT-116) was > 100 µM (inactive). For the same compound, the GI50 (UACC-257) was > 100 µM (inactive), the GI50 (K562) was > 100 µM (inactive) and the GI50 (SF-539) was > 100 µM (inactive). The GI50 (OVCAR-3) was > 100 µM (inactive), the GI50 (MDA-MB-231) was > 100 µM (inactive) and the GI50 (Malme-3M) was > 100 µM (inactive). The GI50 (T47D) was > 100 µM (inactive), the GI50 (COLO 205) was > 100 µM (inactive) and the GI50 (RXF 393) was > 100 µM (inactive). The GI50 (NCI/ADR-RES) was > 100 µM (inactive), the GI50 (U-251) was > 100 µM (inactive) and the GI50 (SK-MEL-28) was > 100 µM (inactive). The GI50 (EKVX) was > 100 µM (inactive), the GI50 (SN12C) was > 100 µM (inactive) and the GI50 (OVCAR-8) was > 100 µM (inactive). For the same compound, the GI50 (MOLT-4) was > 100 µM (inactive), the GI50 (NCI-H522) was > 100 µM (inactive) and the GI50 (SNB-19) was > 100 µM (inactive). For the same compound, the GI50 (SF-295) was > 100 µM (inactive), the GI50 (RPMI-8226) was > 100 µM (inactive) and the GI50 (SW-620) was > 100 µM (inactive). For the same compound, the GI50 (SK-MEL-5) was > 100 µM (inactive), the GI50 (HCC 2998) was > 100 µM (inactive) and the GI50 (A498) was > 100 µM (inactive).

Source: ChEMBL document CHEMBL1201862, “PubChem BioAssay data set” (2004)
